Measurements published in patent publication US11684675B2, “Dimeric collagen hybridizing peptides and methods of using” (University of Utah Research Foundation, priority 2015, dated 2023).

What was measured:
[1] = Triple helix melting point (Tm) by circular dichroism at 225 nm; format: physicochemical; details: for melting point: Example 3; for Tm (° C.): triple helix melting
Procedure: (§1) FIGS. 5A, 5B, 5C, and 5D show the thermal denaturation of fully assembled CHPs and subsequent cooling to initial temperature. Samples were heated at 1° C./min from their initial temperature final temperature of 90° C. Sample was then cooled at 1° C./min to the starting temperature. (A) Thermal denaturation and partial reassembly of CHP CF-6d (150 μM) monitored at 225 nm. Sample was measured from 4° C. to 90° C. (B) Thermal denaturation and partial reassembly of CHP […] (75 μM, corresponding to 150 μM strand concentration) monitored at 225 nm. Sample was measured from 4° C. to 90° C. (C) Thermal denaturation and partial reassembly of CHP CF-9 (150 μM) monitored at 225 nm. Sample was measured from 10° C. to 90° C. (D) Thermal denaturation and partial reassembly of CHP CF-9d (75 μM, corresponding to 150 μM strand concentration) monitored at 225 nm. Sample was measured from 10° C. to 90° C.
FIGS. 11A and 11B show the First Derivative of mean residue ellipticity (MRE) at 225 nm in CD. […] There is no significant change in melting point between the monomeric and dimeric forms of the same peptide.
(§2) Circular Dichroism: Circular Dichroism (CD) was measured for all peptides at 225 nm. Melting curves were taken on peptides between 10 and 80° C. at a heating rate of 0.5° C./min, with pauses at each 1° C. Refolding experiments were performed after peptide solutions were incubated at 4° C. for at least 12 hours. Concentrations were normalized to strand concentration.

[2] = system: crosslinked gelatin films; assay: Binding of CF-labelled CHPs to crosslinked gelatin films at 37° C. with and without preheating; parameters: species or system porcine; details: 20 μM, 37° C. overnight, PBS wash 20 h, FIG. 6C
Procedure: FIGS. 3A and 3B show the affinity of CHPs to gelatin films as monitored by fluorescence of conjugated CF fluorophore (492 ex, 533 em). (A) Fluorescence of CHPs bound to crosslinked gelatin after incubation at 37° C. overnight with no workup. (B) Fluorescence of CHPs remaining in crosslinked gelatin after incubation at 37° C. overnight without preheating, followed by washing with 1×PBS at 37° C. (20 h).
(A) Fraction of peptide remaining in a crosslinked gelatin film after 17 h at 25° C. (10 total washes). Values are normalized to fluorescence remaining in wells after 6 washes at 4° C. (>95% removal of CHPs 9r, 6r, and 5r). All washes performed in 1×PBS. (B) CHPs (15 μM) premixed into 10% porcine gelatin and preheated to 80° C. (10 min) before being added to a 96 well plate. Excess CHP-gelatin mixture was removed, then the premix was incubated at 4° C. for 2 hours. Wells were washed at 4° C., 5 times (>95% removal of CHPs 9r, 6r, and 5r). Wells were then washed for 2 hours (6 washes total) at 25° C. to monitor CHP remaining in the well. (C) Fluorescence of CHPs remaining in crosslinked gelatin after incubation at 37° C. overnight without preheating, followed by washing with 1×PBS at 37° C. (20 h). (D) Fluorescence of CHPs remaining in crosslinked gelatin after incubation at 37° C. overnight (80° C. preheating, 10 min), followed by washing with 1×PBS at 37° C. (20 h).
Dimeric CHPs were assessed for their ability to bind to collagen strands in crosslinked gelatin films. CHP solutions (20 μM in PBS) were added directly to the crosslinked gelatin films. For heated experiments, CHPs were preheated to 80° C. for 10 minutes before addition. Peptides were allowed to fully equilibrate with the gel at 37° C. overnight before being exposed to repeated washes (4×, PBS) at 37° C. to fully remove any non-specifically bound peptide and to determine binding level at body temperature. To measure retention, peptides were bound as previously described, but were subsequently washed with PBS 37° C. (5×1 h, 1×12 h) to measure retention within the gelatin films. […] Additionally, after a period of 20 hours, higher level of the dimeric CHP remained in the gelatin compared to the monomeric CHP.
A major limitation of the use of CHP in vivo, is the requirement of the triple helix to be fully disassembled before being injected. […] For this test, peptide solutions were allowed to warm to room temperature before being added (50 μL, 20 μM) to previously prepared crosslinked gelatin films. Solutions were then incubated at 37° C. overnight before removing the solution. Wells were washed at 37° C. with PBS (20 h) to determine binding. Preheated samples were prepared and incubated in the same way, but with preheating (80° C., 10 min) before being added to the crosslinked gelatin wells.

[3] = CD refolding (triple helix assembly) at 10° C. monitored at 225 nm; format: physicochemical; details: for folded after 2 hours: CD refolding
Procedure: Conversion was assumed to be at 100% after 96 h incubation at 4° C., and max trimer concentration was measured via CD ellipticity at 10° C. Samples were preheated to 80° C. in the sample cuvette for 10 min before being transferred directly to the sample holder held at a constant 10° C. Sample measurement began immediately. Initial time point for analysis was determined by measuring time for a blank (lx PBS) to thermally equilibrate in these conditions.
For all peptides, conversion was assumed to be at 100% after 96 h incubation at 4° C., and max trimer concentration was measured via CD ellipticity at 10° C. Samples were preheated to 80° C. in the sample cuvette for 10 min before being transferred directly to the sample holder held at a constant 10° C. Sample measurement began immediately. Initial time point for analysis was determined by measuring time for a blank (1×PBS) to thermally equilibrate in these conditions. This was set as the zero point for all peptides, as the large jump in CD due to temperature makes the initial jump irresolvable. (A) Rate of assembly of CHP 9 (60, 30, and 15 μM), over 2 h, monitored at 225 nm. (B) Rate of assembly of CHP 9d (30, 15, and 7.5 μM, corresponding to same CHP strand concentration from panel A), over 2 h, monitored at 225 nm. (C) Rate of assembly of CHP 6 (150 and 75 μM), over 2 h, monitored at 225 nm.
FIGS. 12A and 12B show CD refolding at 10° C. of CMPs monitored at 225 nm. CMPs were heated to 80° C. for 5 minutes before being placed into the CD and initial 2 min of monitored data was removed to eliminate thermal transition. Signal was normalized to that of a fully folded peptide.
as §2

[4] = CD thermal denaturation and cooling gradient 90 to 4° C., refolding; format: physicochemical; details: cooling 1° C./min from 90° C.
Procedure: as §1
The dimeric CHPs can also form their triple helices much more readily during slow cooling when compared to their monomeric counterparts. After thermal denaturation and heating to 90° C., the peptides were exposed to a decreasing thermal gradient from 90 to 4° C. (1° C./min) during which the ellipticity at 225 nm was monitored. During these cooling gradients, the dimeric CHPs began refolding at a higher temperature than the monomers with the same number of repeat units. […]

Row | Substance | melting point [1] | Tm (° C.) ([1]; Table 1) | Tm (° C.) ([1]; Table 2) | binding to gelatin wells at 37° C. without preheating [2] | refolding after two hours of incubation ([3]; 10° C., same strand concentration) | folded after 2 hours ([3]; 75 μM) | temperature below the reported Tm until which no significant refolding was observed [4] | folded after 2 hours ([3]; 60 μM)
1 | (GPO)6 [compound 6] | 37 °C | 37 (SEQ ID NO: 59) ° C. | 37 (SEQ ID NO: 59) ° C. | do not have a strong enough affinity to the gelatin to bind effectively at physiologic temperature | did not reach its half maximal refolding after two hours | 28% | approximately 10 °C | –
2 | (GPO)9 [compound 9] | 68 °C | 68 (SEQ ID NO: 56) ° C. | 68 (SEQ ID NO: 56) ° C. | unable to bind significantly without preheating | – | – | ~15 °C | 40%
